This is an account of results in patent publication US4460595A, “Using urazole analogs of prostaglandins for bronchodilation” (Beecham Group Limited, priority 1976, dated 1984).

For orientation: ED50 means the midpoint of the dose-response relation.

The assay relates to 5-hydroxytryptamineor histamine induced bronchoconstriction. In words: Inhibition of 5-hydroxytryptamine or histamine induced bronchoconstriction (Konzett-Rossler preparation). The format is in vivo. The settings on record: Cavia porcellus, iv, anaesthetised artificially respired guinea-pig. An excerpt:
The compounds are examined for their ability to inhibit 5-hydroxytryptamineor histamine induced bronchoconstriction in the anaesthetised artificially respired guinea-pig (Konzett-Rossler preparation).
The ED50 values (μg/kg, i.v.) for inhibition of bronchoconstriction for a variety of the triazolidine-3,5-diones are given in Table 7.

Turning to `CCCCCC(O)CCn1c(=O)n(C)c(=O)n1CCCCCCC(=O)O` (stereo not shown) [Compound 24, 1-(6'-Carboxy-n-hexyl)-2-(3"-hydroxy-n-octyl)-4-methyl-1,2,4-triazolidine-3,5-dione], it took a dose of 4 µg/kg to reach the 50% effect level (ED50).

For the compound `COC(=O)CCCCCCn1c(=O)n(C)c(=O)n1CCC(C)(O)Cc1ccccc1` (stereo not shown) [Compound 31], the ED50 was 37 µg/kg.

The compound `CCCCCCC(C)(O)CCn1c(=O)n(C)c(=O)n1CCCCCCC(=O)OC` (stereo not shown) [Compound 29, 1-(6'-methoxycarbonyl-n-hexyl-)-2-(3"-hydroxy-3"-methyl-n-nonyl)-4-methyl-1,2,4-triazolidine-3,5-dione] had an ED50 of 2.6 µg/kg.

Regarding `CCCCCCC(C)(O)CCn1c(=O)n(C)c(=O)n1CC=CCCCC(=O)OC` (stereo not shown) [Compound 43, 1-(6'-methoxycarbonyl-n-hex-2-enyl)-2-(3"-hydroxy-3"-methyl-n-nonyl)-4-methyl-1,2,4-triazolidine-3,5-dione], it took a dose of 1.9 µg/kg to reach the 50% effect level (ED50).

Regarding `COC(=O)CCCCCCn1c(=O)n(C)c(=O)n1CCC(C)(O)C1CCCCC1` (stereo not shown) [Compound 33], it took a dose of 2.6 µg/kg to reach the 50% effect level (ED50).

On to `CCCCC(C)C(C)(O)CCn1c(=O)n(C)c(=O)n1CCCCCCC(=O)OC` (stereo not shown) [Compound 32], for which the ED50 is 0.74 µg/kg.

On to `CCCCCC(O)CCn1c(=O)n(C)c(=O)n1CCCCCCC(=O)OCC` (stereo not shown) [Compound 21, 1-(6'-Ethoxycarbonyl-n-hexyl)-2-(3"-hydroxy-n-octyl)-4-methyl-1,2,4-triazolidine-3,5-dione], for which the 50% effective dose (ED50) came to 3.4 µg/kg.
